Results taken from patent publication US20240139211A1, “METHODS AND COMPOSITIONS FOR TREATING AMYOTROPHIC LATERAL SCLEROSIS” (Amylyx Pharmaceuticals, Inc., priority 2022, published 2024).
Read-outs that look alike come from different tables or passages of the source.

How the values were obtained:
OCT2 = biological target: T1, OCT2 (Homo sapiens, UniProt O15244); assay: OCT2 inhibition, MPP+ uptake in transfected HEK cells; conditions: read-out: Estimated IC50 toward OCT2; TUDCA and PB present simultaneously
T1 sequence (O15244 1-555): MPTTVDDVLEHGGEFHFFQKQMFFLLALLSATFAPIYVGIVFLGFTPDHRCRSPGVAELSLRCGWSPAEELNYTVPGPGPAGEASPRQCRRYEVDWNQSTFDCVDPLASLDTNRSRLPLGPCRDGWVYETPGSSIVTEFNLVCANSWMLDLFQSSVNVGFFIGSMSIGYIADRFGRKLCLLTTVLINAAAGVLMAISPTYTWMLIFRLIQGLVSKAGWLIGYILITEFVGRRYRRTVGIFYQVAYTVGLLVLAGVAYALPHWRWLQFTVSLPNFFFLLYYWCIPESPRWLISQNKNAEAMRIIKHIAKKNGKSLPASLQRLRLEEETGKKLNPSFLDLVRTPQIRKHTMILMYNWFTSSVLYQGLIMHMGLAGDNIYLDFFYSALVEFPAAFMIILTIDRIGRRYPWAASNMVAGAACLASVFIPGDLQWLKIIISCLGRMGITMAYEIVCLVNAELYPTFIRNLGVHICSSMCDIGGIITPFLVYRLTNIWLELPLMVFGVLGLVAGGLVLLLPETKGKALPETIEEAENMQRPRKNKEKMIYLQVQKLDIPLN

[1] = tested on: CYPs in human liver microsomes (HLM)
[2] = biological target: CYPs in human liver microsomes (HLM) (Homo sapiens, UniProt P11712); conditions: 5 min
Chain of CYPs in human liver microsomes (HLM) (Homo sapiens, UniProt P11712) (P11712 whole entry): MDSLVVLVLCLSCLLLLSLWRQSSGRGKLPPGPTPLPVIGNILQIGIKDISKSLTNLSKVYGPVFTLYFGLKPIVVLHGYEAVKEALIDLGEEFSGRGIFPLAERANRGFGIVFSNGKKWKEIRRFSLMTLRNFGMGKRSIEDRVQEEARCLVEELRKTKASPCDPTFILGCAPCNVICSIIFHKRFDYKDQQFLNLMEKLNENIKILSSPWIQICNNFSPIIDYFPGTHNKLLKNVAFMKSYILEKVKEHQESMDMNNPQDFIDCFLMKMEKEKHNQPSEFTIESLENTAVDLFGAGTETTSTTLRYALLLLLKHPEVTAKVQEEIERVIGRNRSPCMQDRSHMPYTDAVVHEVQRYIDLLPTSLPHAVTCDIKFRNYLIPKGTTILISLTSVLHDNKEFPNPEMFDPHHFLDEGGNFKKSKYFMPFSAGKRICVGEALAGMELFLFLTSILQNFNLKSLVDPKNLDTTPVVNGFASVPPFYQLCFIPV

[3] = biological target: CYPs in human liver microsomes (HLM) (Homo sapiens, UniProt P10635); conditions: 5 min
Chain of CYPs in human liver microsomes (HLM) (Homo sapiens, UniProt P10635) (P10635 whole entry): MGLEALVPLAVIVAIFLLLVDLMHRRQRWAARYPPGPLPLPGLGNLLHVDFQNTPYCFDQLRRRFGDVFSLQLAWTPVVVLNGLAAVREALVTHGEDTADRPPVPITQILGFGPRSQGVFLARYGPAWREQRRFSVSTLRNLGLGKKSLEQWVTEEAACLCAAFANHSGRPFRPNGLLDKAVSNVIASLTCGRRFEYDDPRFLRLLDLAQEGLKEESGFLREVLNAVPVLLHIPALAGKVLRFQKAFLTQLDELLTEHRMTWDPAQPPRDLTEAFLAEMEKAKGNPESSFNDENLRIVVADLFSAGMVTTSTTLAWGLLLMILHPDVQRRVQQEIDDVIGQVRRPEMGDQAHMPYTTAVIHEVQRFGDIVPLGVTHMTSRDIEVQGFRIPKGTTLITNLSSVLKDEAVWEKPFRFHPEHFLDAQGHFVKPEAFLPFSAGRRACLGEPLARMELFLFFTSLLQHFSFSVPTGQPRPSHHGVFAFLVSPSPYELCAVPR

[4] = biological target: T2, CYPs in human liver microsomes (HLM) (Homo sapiens, UniProt P20813); conditions: 1 h
T2 sequence (P20813 1-491): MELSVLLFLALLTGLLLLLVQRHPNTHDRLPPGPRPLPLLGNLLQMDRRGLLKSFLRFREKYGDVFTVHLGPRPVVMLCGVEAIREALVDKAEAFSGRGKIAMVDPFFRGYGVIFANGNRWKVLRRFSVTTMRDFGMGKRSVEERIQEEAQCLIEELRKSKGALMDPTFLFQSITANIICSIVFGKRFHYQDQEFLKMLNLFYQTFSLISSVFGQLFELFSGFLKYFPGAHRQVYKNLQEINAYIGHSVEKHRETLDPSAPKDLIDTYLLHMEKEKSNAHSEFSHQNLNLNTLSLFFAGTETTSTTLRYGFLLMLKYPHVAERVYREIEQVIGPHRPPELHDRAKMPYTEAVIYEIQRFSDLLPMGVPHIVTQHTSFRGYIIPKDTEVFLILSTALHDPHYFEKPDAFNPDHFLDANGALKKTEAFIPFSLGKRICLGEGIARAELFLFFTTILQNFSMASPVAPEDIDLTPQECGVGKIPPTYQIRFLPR

## tauroursodeoxycholic acid [TUDCA]
OCT2
  IC50: > 162 µM
[1]; 5 min
  % remaining of TA in HLM: 103%
[1]; 1 h
  % remaining of TA in HLM: 105%
[2]
  % remaining of TA in HLM: 102%
[3]
  % remaining of TA in HLM: 101%
[4]
  % remaining of TA in HLM: 102%
